Tested on: AMYLASE
Experiment: Inhibition or promotion of AMYLASE activity by ions and EDTA
Assay type: biochemical, Alcaligenes latus D2271
Conditions: for inhibition of enzyme activity: one mM metal ion
Protocol: The activity of the present AMYLASE is assayed as follows: 0.2 ml of an enzyme solution is added to 5 ml of 0.3 w/v % soluble starch in 20 mM phosphate buffer (pH 5.5) containing 1 mM CaCl2), and the mixture solution is incubated at 40° C. for 10 min, followed by sampling 0.5 ml of the resultant solution, and adding the solution to 15 ml of 0.02N sulfate solution to suspend the enzymatic reaction. The resultant is mixed with 0.2 ml of 0.1N iodine solution, stirred, allowed to stand at 25° C. for 15 min, and its absorbance at a wave length of 660 nm determined. One unit activity of the present AMYLASE is defined as the amount of enzyme which diminishes the iodine coloration of 15 mg soluble starch when reacted at 40° C. for 10 min.
Effects of temperature and pH on the enzyme activity were studied in the presence of calcium chloride in accordance with the assay as used for determining the enzyme activity. […] The thermal stability of the enzyme was determined by incubating it in 20 mM acetate buffer containing 5 mM calcium chloride (pH 6.0) at different temperatures for 60 min, cooling the buffers, and assaying the remaining enzyme activity in each buffer. The pH stability of the enzyme was determined by incubating it in 20 mM acetate buffer having different pHs at 40° C. for one hour, adjusting the buffer to pH 6.0, and assaying the remaining enzyme activity in each buffer.

Row | Structure (SMILES) | inhibition of enzyme activity | promotion of activity and stabilization of AMYLASE (calcium ion)
1 | [Hg+2] [mercury ion] | inhibited | –
2 | [Zn+2] [zinc ion] | inhibited | –
3 | [Pb+2] [lead ion] | inhibited | –
4 | [Ca+2] [calcium ion] | – | promoted its activity and stabilized
5 | [Cu+2] [copper ion] | inhibited | –

From US6242224A, “Maltohexaose and maltoheptaose-forming amylase, and its preparation and uses” (Kabushiki Kaisha Mayashibara Seibutsu Kagaku Kenkyujo, priority 1994, dated 2001)
